Holding throughout (type): functional, cell-based
One assay has as its system A549. Briefly: Antiproliferative activity against human A549 cells incubated for 24 hrs by MTT assay. Conditions: A549, 24 h. On the technique in general: Formazan colour is commonly taken as a measure of viable cells.
The test system of the next assay is HeLa. The experiment in a line: Antiproliferative activity against human HeLa cells incubated for 24 hrs by MTT assay.
Another assay deals with SK-N-SH. Briefly: Antiproliferative activity against human SK-N-SH cells incubated for 24 hrs by MTT assay.
The next assay deals with HepG2. The experiment in a line: Antiproliferative activity against human HepG2 cells incubated for 24 hrs by MTT assay. Conditions: HepG2, 24 h.
A further assay has as its system MCF7. Briefly: Antiproliferative activity against human MCF7 cells incubated for 24 hrs by MTT assay. Conditions: MCF7, 24 h.

What is called IC50 is the concentration that inhibits the measured activity by half. Turning to `Cc1ccc(-c2nc3ccccc3c3c2c(-c2ccccc2)nn3-c2ccccc2)cc1`, the IC50 in the assay with A549 was 56.8 µM; in the assay with HeLa, 7.38 µM; with SK-N-SH, 5.02 µM; with HepG2, 32.7 µM; with MCF7, 24.2 µM.
Turning to `Cc1ccc(-c2nc3ccccc3c3c2c(-c2ccc(Br)cc2)nn3-c2ccccc2)cc1`, the 50% inhibitory concentration (IC50) was determined as 2.43 µM with A549; 8.3 µM with HeLa; 4.54 µM with SK-N-SH; 26 µM in the assay with HepG2; 19.6 µM in the assay with MCF7.
As for `Brc1ccc(-c2nn(-c3ccccc3)c3c2c(-c2ccccc2)nc2ccccc23)cc1`, the half-maximal inhibitory concentration (IC50) with A549 is 4.92 µM; in the assay with HeLa, 14.3 µM; in the assay on SK-N-SH, 5.99 µM; in the assay on HepG2, 14.6 µM; in the assay on MCF7, 12.3 µM.
Turning to `Clc1ccc(-c2nc3ccccc3c3c2c(-c2ccccc2)nn3-c2ccccc2)cc1`, the IC50 stood at 8.09 µM in the assay with A549; 5.62 µM in the assay with HeLa; 6.65 µM in the assay with SK-N-SH; 10.8 µM in the assay with HepG2; 11.1 µM in the assay on MCF7.
For `Brc1ccc(-c2nn(-c3ccccc3)c3c2c(-c2ccco2)nc2ccccc23)cc1` the same measures were 8.81 µM, 4.89 µM, 3.83 µM, 30.4 µM and 14 µM.
For `COc1ccccc1-c1nc2ccccc2c2c1c(-c1ccc(Br)cc1)nn2-c1ccccc1` the same measures were 8.45 µM, 5.29 µM, 5.54 µM, 30.3 µM and 123 µM.
Taken in the same sequence, the figures for `Clc1ccc(-c2nc3ccccc3c3c2c(-c2ccc(Br)cc2)nn3-c2ccccc2)c(Cl)c1` were 5.96 µM, 81.2 µM, 7.13 µM, 180 µM and 6.01 µM.
Take `COc1ccc(-c2nc3ccccc3c3c2c(-c2ccc(Br)cc2)nn3-c2ccccc2)c(OC)c1`: the half-inhibitory concentration (IC50) in the assay on A549 was determined as 41.1 µM; in the assay with HeLa it was 12 µM; in the assay on SK-N-SH, 3.76 µM; in the assay with HepG2, 42.8 µM; with MCF7, 10.4 µM.
In the case of `O=[N+]([O-])c1cccc(-c2nc3ccccc3c3c2c(-c2ccc(Br)cc2)nn3-c2ccccc2)c1`, the IC50 was 15.6 µM with A549; 6.49 µM in the assay with HeLa; 3.87 µM with SK-N-SH; 19.3 µM with HepG2; 20.3 µM with MCF7.
Taken in the same sequence, the figures for `Clc1ccc(-c2nc3ccccc3c3c2c(-c2ccccc2)nn3-c2ccccc2)c(Cl)c1` were 8.17 µM, 5.24 µM, 11.5 µM, 83.9 µM and 77.8 µM.
`COc1ccccc1-c1nc2ccccc2c2c1c(-c1ccccc1)nn2-c1ccccc1`: the concentration for half-maximal inhibition (IC50) in the assay with A549 was 25.8 µM; with HeLa it was 7.81 µM; in the assay with SK-N-SH, 5.39 µM; with HepG2 it was 18.8 µM; in the assay with MCF7, 15.4 µM.
Consider `c1ccc(-c2nc3ccccc3c3c2c(-c2ccccc2)nn3-c2ccccc2)cc1`, for which the IC50 was 16.5 µM with A549; 24.6 µM in the assay with HeLa; 5.24 µM with SK-N-SH; 18.6 µM in the assay with HepG2; 32.6 µM with MCF7.
`Clc1ccc(-c2nc3ccccc3c3c2c(-c2ccc(Br)cc2)nn3-c2ccccc2)cc1`: the IC50 in the assay on A549 was found to be 8.79 µM; in the assay with HeLa it was 9.52 µM; with SK-N-SH, 5.47 µM; with HepG2, 20.7 µM; in the assay with MCF7 it was 38 µM.
As to `Brc1ccc(-c2nn(-c3ccccc3)c3c2c(-c2cccc4ccccc24)nc2ccccc23)cc1`, the IC50 stood at 8.1 µM in the assay with A549; 11.8 µM with HeLa; 5.54 µM with SK-N-SH; 24.4 µM with HepG2; 18.4 µM in the assay with MCF7.
Taken in the same sequence, the figures for `Brc1ccc(-c2nn(-c3ccccc3)c3c2c(-c2cccs2)nc2ccccc23)cc1` were 9.34 µM, 23.4 µM, 5.24 µM, 35 µM and 42.4 µM.
With `COc1cccc2c1C(=O)c1c(O)c3c(c(O)c1C2=O)C[C@@](O)(C(=O)CO)C[C@@H]3O[C@H]1C[C@H](N)[C@H](O)[C@H](C)O1` [DOXORUBICIN], the IC50 with A549 was found to be 0.223 µM; in the assay with SK-N-SH it was 2.42 µM; with HepG2 it was 6.11 µM.

Source of the values: ChEMBL document CHEMBL4184262, “Iodine mediated pyrazolo-quinoline derivatives as potent anti-proliferative agents” (Bioorg Med Chem Lett, 2018).
